This note sets out measurements from patent publication US20220034903A1, “Therapies That Target Autoimmunity For Treating Glaucoma And Optic Neuropathy” (The Schepens Eye Research Institute, Inc., priority 2011, published 2022).

Assay type in all cases: in vivo
Assay [1] concerns RGCs. The assay is described as follows: Optic nerve crush injury, RGC loss at 4 weeks. Conditions: wild-type mice, rapamycin i.p. 100 μg/day, 4 weeks post-optic nerve crush (87% loss without treatment). On the procedure:
FIG. 9 is a bar chart showing that suppressing autoimmunity using immuno-deficient mice or immune suppressor promotes RGC survival after optic neuropathy. Optic never crush injury was performed in wild-type (wt) mice that received daily injection of PBS (wt) or rapamycin (Rapam) as well as in Rag1^−/− (Rag1) and TCRβ^−/− (TCRβ) mice. Animals were sacrificed 4 weeks post operation, and percentage of RGC loss was assessed. (*P<0.01 as compared to the normal subject group).
(§1) A standard procedure for quantification of RGC axon loss in optic nerve sections was used, e.g., as described in Cho et al., J Cell Sci 118, 863-872. (2005). Axonal density was calculated, and the percentage of axon loss was determined by comparing with the axon density calculated from corresponding regions of the contralateral control eyes. RGC loss was assessed quantitatively in retinal flat-mounts that were incubated with a primary antibody against a RGC specific marker, β-III-tubulin (Fournier, A. E. & McKerracher, L. Biochem Cell Biol 73, 659-664 (1995); Fitzgerald et al., Investigative ophthalmology & visual science (2009); Tuj1; Sigma-Aldrich, St.), followed by a Alexa Fluor 488-conjugated secondary antibody. The degree of RGC loss was assessed as previously described (Chen et al., Investigative ophthalmology & visual science 52, 36-44 (2011)). […]

The next assay concerns retinal activity. The assay is described as follows: Electroretinogram a and b wave after AION. Conditions: mice with AION, vs IgG isotype-injected ischemia group, different intensity of light stimulation.
Assay [2] relates to RGCs. The experiment in a line: AION (ischemic optic neuropathy), RGC loss in retinal flat-mounts. Conditions: WT mice, injected into the vitreous at 3, 7 and 14 days post injury, sacrificed 4 weeks after AION, vs IgG isotype. The procedure: OKT3 antibody was injected into the vitreous of ischemia WT mice at 3, 7, and 14 days post injury. Injection of IgG isotype served as the control. All of the recipient mice were sacrificed at 4 weeks after AION.
as §1, with “(2011)). The total numbers and densities of RGCs were calculated, and the percentage of RGC loss was determined by comparing RGC number with that obtained from the corresponding regions of the contralateral control eyes.” for “(2011)).”

The compound `CO[C@H]1C[C@@H]2CC[C@@H](C)[C@@](O)(O2)C(=O)C(=O)N2CCCC[C@H]2C(=O)O[C@H]([C@H](C)C[C@@H]2CC[C@@H](O)[C@H](OC)C2)CC(=O)[C@H](C)/C=C(\C)[C@@H](O)[C@@H](OC)C(=O)[C@H](C)C[C@H](C)/C=C/C=C/C=C/1C` [rapamycin] came in with an RGC loss in the assay with RGCs [1] of 65%.

Take “OKT3 antibody: monoclonal antibody targeted at the CD3 receptor on T cells; clinically approved immunosuppressant”: the “retinal function (electroretinogram a and b wave) after AION” value with retinal activity is “functional rescue of retinal activity”. For the same compound, in the assay with RGCs [2], the “effect on RGC loss after AION” value is recorded as “neuroprotective effect”.
